Measurements published in patent US5110933A, “Salts of 3-azabicyclo[3.3.1]nonanes as antiarrhythmic agents, and precursors thereof” (Board of Regents of Oklahoma State University, priority 1990, dated 1992).

Columns and labels:
[1] = test system: Sustained ventricular tachycardia induced by electrical pacing of infarcted dog heart; experiment: Antiarrhythmic activity on sustained ventricular tachycardia induced by electrical pacing of infarcted dog heart; format: in vivo; settings: for ability to reduce the rate of the induced VT or to eliminate the same: 3 mg/kg as well as 6 mg/kg
Text: To illustrate the useful biological properties of the compounds described in this invention, selected derivatives were screened for antiarrhythmic activity using dog models. The clinically used agent lidocaine and 7-benzyl-3-thia-7-azabicyclo[3.3.1]nonane hydroperchlorate (48) [U.S. Pat. No. 4,581,361] were employed as standards as basis for comparison. A small infarction was created in an area of the dog heart and thereafter electrical pacing was initiated to generate a sustained ventricular tachycardia (VT). This irregular beating pattern of the heart results in a reduction of the pumping capability of the heart in a manner now accepted as resembling symptoms observed in humans during a heart attack (see: Scherlag, B. J. et. al., Am. J. Cardiol. 1983, 51, 207; Bailey, B. R. et. al., J. Med. Chem. 1984, 27, 759; Thompson, M. D. et. al., J. Med. Chem. 1987, 30, 780; U.S. Pat. No. 4,581,361; and U.S. Pat. No. 4,778,892 for further details, said references incorporated herein for such purposes). The effects of the selected compounds in terms of ability to reduce the rate of the induced VT or to eliminate the same (abolish the VT completely or at least not allow it to be sustained) is then evaluated and compared to lidocaine or to 7-benzyl-3-thia-7-azabicyclo[3.3.1]nonane hydroperchlorate (48).

[2] = design: species or system rats; settings: rat, in vivo, po
[3] = Tissue distribution of radioactivity after oral administration of (48)*; design: species or system rats; settings: rat, in vivo
Text: In order to determine the potential viability of members of the above family to act as useful antiarrhythmic agents in vivo, a pharmacokinetic and metabolism study was undertaken using a representative example from the above compounds. The techniques employed in these preliminary studies are well documented, but a summary of pharmacokinetic procedures can be found in: J. D. Baggot, "Principals of Drug Disposition in Domestic Animals: The Basis of Veterinary Clinical Pharmacology", W. B. Saunders Company, Philadelphia, 1977. These studies were conducted using ^14 C-labelled (48)* [Prepared by the method of Zisman, Berlin, et al. J. Labelled Compounds and Radiopharmaceuticals, In Press (1989)] in Sprague-Dawley rats.
Tissue distribution of (48)* was studied by measuring the radioactivity in selected organs collected from rats sacrificed at several time intervals after oral administration. […] These observations correlate well with the high volume of distribution calculated from pharmacokinetic data.

Row | Compound | ability to reduce the rate of the induced VT or to eliminate the same [1] | Effect on SVT ([1]; 3mg/kg) | Effect on SVT ([1]; 6mg/kg) | also measured
1 | CC(C)N1CC2CC(CN(C(=O)c3ccccc3)C2)C1 [(1), 3-Benzoyl-7-isopropyl-3,7-diazabicyclo[3.3.1]nonane Hydroperchlorate] | extremely effective in eliminating the induced VT | – | – | –
2 | COc1ccc(C(=O)N2CC3CC(C2)CN(C(C)C)C3)cc1OC.[O-][Cl+3]([O-])([O-])O [(3), 3-(3',4'-Dimethoxybenzoyl)-7-isopropyl-3,7-diazabicyclo[3.3.1]nonane Hydroperchlorate] | extremely effective in eliminating the induced VT | – | – | –
3 | CC(C)N1CC2CC(CN(Cc3ccccc3)C2)C1 [(5), 7-Benzyl-3-isopropyl-3,7-diazabicyclo[3.3.1]nonane Hydroperchlorate] | extremely effective in eliminating the induced VT | – | – | –
4 | CC(C)N1CC2CSCC(C2)C1 [(8), 7-Isopropyl-3-thia-7-azabicyclo[3.3.1]nonane Hydroperchlorate] | exhibited little effect on the dog model | No action | No action | –
5 | [O-][S+]1CC2CC(CN(Cc3ccccc3)C2)C1 (stereo not drawn) [(10), 7-Benzyl-3-thia-7-azabicyclo[3.3.1]nonane 3-Oxide Hydroperchlorate] | reduced the rates of the induced VT but did not abolish them | Reduced rate of VT | Reduced rate of VT | –
6 | COC1(OC)C2CSCC1CN(Cc1ccccc1)C2 [(11), 7-Benzyl-9,9-dimethoxy-3-thia-7-azabicyclo[3.3.1]-nonane Hydroperchlorate] | extremely effective in eliminating the induced VT | – | – | –
7 | COC1(OC)C2CN(Cc3ccccc3)CC1CN(Cc1ccccc1)C2 [(12), 3,7-Dibenzyl-9,9-dimethoxy-3,7-diazabicyclo[3.3.1]nonane Hydroperchlorate] | reduced the rates of the induced VT but did not abolish them | Reduced | Reduced | –
8 | O=C(c1ccccc1)N1CC2CSCC(C2)C1 [(15)] | reduced the rates of the induced VT but did not abolish them | Reduced | Reduced | –
9 | O=C1C2CC(CN(Cc3ccccc3)C2)CN1Cc1ccccc1 (stereo not drawn) [(17), 3,7-Dibenzyl-3,7-diazabicyclo[3.3.1]nonan-2-one] | reduced the rates of the induced VT but did not abolish them | Reduced | Reduced | –
10 | c1ccc(CN2CC3CSCC(C3)C2)cc1 [(48)] | – | – | – | excretion in urine [2]: most of the dose was excreted in the form of metabolites; radioactivity in liver and kidney [3]: High levels of radioactivity; radioactivity in the heart [3]: Reasonably high concentrations of radioactivity
11 | Ethyl 3-Benzyl-3-azabicyclo[3.3.1]nonane-7-(endo)-carboxylate Hydroperchlorate [(13)] | extremely effective in eliminating the induced VT | – | – | –
12 | Ethyl 3-Benzyl-9,9-(1,3-dithiolan-2-yl)-3-azabicyclo[3.3.1]nonane-7-(endo)-carboxylate Hydroperchlorate [(14)] | extremely effective in eliminating the induced VT | – | – | –
